Laboratory results as given in US11524051B2, “Methods of treating fungal infections” (United States of America as represented by the Secretary of …, priority 2017, dated 2022).
Square brackets hold non-standard residues; d marks the D form. Ends that are not written are not given here. Peptide text beside a SMILES is read from it.

Columns and labels:
human red blood cells = experiment: Hemolysis assay; type: cell-based; settings: 1 hour at 37° C., versus untreated controls
Experimental: The hemolytic activity of BmKn2, dBmKn2, Kn2-7, dKn2-7, and melittin was assessed using human red blood cells (RBCs). The RBCs were prepared from human whole blood (BioreclamationIVT, Westbury, N.Y., USA) according to a previous report (Evans et al, J. Vis. Exp. (73), 50166, doi:10.3791/50166 (2013)). In brief, human whole blood was centrifuged, and the RBCs were washed with PBS 3-4 times and then diluted 1:20 of the original volume in PBS. Peptides at various concentrations from 0-400 μg/mL in PBS were mixed with an equal volume of the diluted RBCs in a 96-well microtiter plate and allowed to incubate for 1 hour at 37° C. The plate was then centrifuged at 500 g for 5 minutes and 100 μL of the supernatant was transferred to a 96-well, transparent, flat-bottomed plate. Sample absorbances were read at 490 nm using a BioTek Synergy HT plate reader (BioTek, Winooski, Vt.). PBS was used as a negative control (blank), and 1% Triton X-100 was used as a positive control for 100% hemolysis. The percent hemolysis for the unknown samples was calculated according to the following equation: […]

[1] = Stability of peptides in human serum (LC-MS); type: in vitro ADME; settings: 37° C.; for remaining at 24 h, 50 μg/mL: 25% human serum (v/v), pH 7, 25% human serum in RPMI 1640, after 24 hours, read-out: peptide remaining, percent of t0; for reduction of peptide amount: 100% culture medium (RPMI 1640), 24 hours, 50 μg/mL
Experimental: The stability of Kn2-7 and dKn2-7 (50 μg/mL) were studied in 25% human serum (v/v) (BioreclamationIVT, Westbury, N.Y., USA) in 1640 RPMI media (made with 165 mM MOPS, pH 7.0) or in 100% 1640 RPMI medium at 37° C. (H. Jenssen, S. I. Aspmo, Serum stability of peptides, Peptide-Based Drug Design (2008) 177-186.) At predetermined time points, 100 μL aliquots of each solution was removed and thoroughly mixed with 200 μL of 96% ethanol. This was incubated on ice for 15 minutes followed by centrifugation at 10,000 g for 5 minutes to pellet the precipitated proteins. The supernatant (200 μL) was carefully removed, spiked with peptide 1018 (VRLIVAVRIWRR; SEQ ID NO. 3) at 1 μg/mL as the internal standard, and stored at −20° C. prior to liquid chromatography-mass spectrometry (LC/MS) analysis. Peptide 1018 is a synthetic peptide derived from bactenecin, a bovine neutrophil host defense peptide. (Mansour, S. C., et al. (2015) J. Pept. Sci., 21, 323-329. doi: 10.1002/psc.2708. The peptide sequence was synthesized by Genemed Synthesis Inc. (San Antonio, Tex.).
Liquid chromatography was performed on a Shimadzu HPLC system (Shimadzu Scientific Instruments, Inc., Columbia, Md.). A 10-μl aliquot of the sample was injected into an Agilent ZORBAX Eclipse XDB 80 Å C18 (2.1×50 mm, 5 μm) column (Agilent, Santa Clara, Calif.) held at 40° C. Mass spectrometric analysis was carried out on an AB Sciex API 4000 mass spectrometer (AB Sciex, Framingham, Mass.) with an electrospray ionization (ESI) interface and triple quadrupole mass analyzer. The peak areas of Kn2-7 and dKn2-7 on the LC-MS chromatograms were standardized to the peak area for peptide 1018.

C. albicans = test system: C. albicans; parameters: unit not given beside the values; settings: compared with dKn2-7; cited from earlier work

| Compound | concentration at which a significant increase in hemolysis starts (human red blood cells) [µg/mL] | remaining at 24 h, 50 μg/mL [1] [%] | reduction of peptide amount [1] | MIC against C. albicans, times higher than dKn2-7 (C. albicans) [×] |
| --- | --- | --- | --- | --- |
| CC[C@@H](C)[C@@H](NC(=O)[C@H](N)Cc1ccccc1)C(=O)NCC(=O)N[C@H](C)C(=O)N[C@@H](C(=O)N[C@H](C)C(=O)N[C@H](CCCNC(=N)N)C(=O)N[C@H](CC(C)C)C(=O)N[C@H](CC(C)C)C(=O)N[C@H](CO)C(=O)N[C@H](CCCCN)C(=O)N[C@@H](C(=O)N[C@H](Cc1ccccc1)C(=O)O)[C@H](C)CC)[C@H](C)CC [dBmKn2] (H-[dF][dI]G[dA][dI][dA][dR][dL][dL][dS][dK][dI][dF]-OH; N-terminus and C-terminus assumed) | 100 | – | – | – |
| CC[C@@H](C)[C@@H](NC(=O)[C@H](N)Cc1ccccc1)C(=O)N[C@H](CCCCN)C(=O)N[C@H](CCCNC(=N)N)C(=O)N[C@@H](C(=O)N[C@H](C)C(=O)N[C@H](CCCNC(=N)N)C(=O)N[C@H](CC(C)C)C(=O)N[C@H](CC(C)C)C(=O)N[C@H](CCCNC(=N)N)C(=O)N[C@H](CCCCN)C(=O)N[C@@H](C(=O)N[C@H](Cc1ccccc1)C(=O)O)[C@H](C)CC)[C@H](C)CC [dKn2-7] (H-[dF][dI][dK][dR][dI][dA][dR][dL][dL][dR][dK][dI][dF]-OH; N-terminus and C-terminus assumed) | 200 | ~43 | about 20% | – |
| CC[C@H](C)[C@H](NC(=O)CN)C(=O)NCC(=O)N[C@@H](C)C(=O)N[C@H](C(=O)N[C@@H](CC(C)C)C(=O)N[C@@H](CCCCN)C(=O)N[C@H](C(=O)N[C@@H](CC(C)C)C(=O)N[C@H](C(=O)N[C@H](C(=O)NCC(=O)N[C@@H](CC(C)C)C(=O)N1CCC[C@H]1C(=O)N[C@@H](C)C(=O)N[C@@H](CC(C)C)C(=O)N[C@H](C(=O)N[C@@H](CO)C(=O)N[C@@H](Cc1c[nH]c2ccccc12)C(=O)N[C@H](C(=O)N[C@@H](CCCCN)C(=O)N[C@@H](CCCNC(=N)N)C(=O)N[C@@H](CCCCN)C(=O)N[C@@H](CCCNC(=N)N)C(=O)N[C@@H](CCC(N)=O)C(=O)N[C@@H](CCC(N)=O)C(N)=O)[C@@H](C)CC)[C@@H](C)CC)[C@@H](C)O)[C@@H](C)O)C(C)C)C(C)C [melittin, reference compound] | ≥ 3.125 | – | – | – |
| FIGAIARLLSKIF [BmKn2, FIGAIARLLSKIF (SEQ ID NO. 1)] | 100 | – | – | – |
| FIKRIARLLRKIF [Kn2-7, FIKRIARLLRKIF (SEQ ID NO. 2)] | 200 | ~9 | about 20% | – |
| LL-37: well-studied LL-37 peptide | – | – | – | ~3 |
